PMC10488051, “Screening, Synthesis and Biochemical Characterization of SARS-CoV-2 Protease Inhibitors” (International Journal of Molecular Sciences, 2023)
Values joined by “and” are separate entries in the source; they are usually repeats but may differ in a detail not shown here. Equal values may be shown once. “Also recorded” adds a separate entry of the source. Read-outs that look alike come from different tables or passages of the source.

Columns and labels:
SARS-CoV-2 PL^pro = SARS-CoV-2 PL^pro (Severe acute respiratory syndrome coronavirus 2, UniProt P0DTD1); experiment: PL^pro enzymatic inhibition assay (FRET-based, Z-RLRGG-AMC substrate); format: biochemical; details: for Kd: enzymatic inhibition assay, 25 °C, pH 7.5
SARS-CoV-2 M^pro = SARS-CoV-2 M^pro (Severe acute respiratory syndrome coronavirus 2, UniProt P0DTD1); experiment: biochemical; format: biochemical
M^pro [1] = target: T1, M^pro (Severe acute respiratory syndrome coronavirus 2, UniProt P0DTD1); details: cited from earlier work
wt PL^pro = wt PL^pro (Severe acute respiratory syndrome coronavirus 2, UniProt P0DTD1)
M^pro [2] = target: T1, M^pro; format: binding
PL^pro = PL^pro (Severe acute respiratory syndrome coronavirus 2, UniProt P0DTD1); format: binding; details: for Covalent binding to PL^pro by mass spectrometry: no reducing agents, 1 h incubation at room temperature
SARS-CoV-2 = details: patients with mild-to-moderate COVID-19; cited from earlier work
[3] = Table 1 thiazole series, uncertainty approx. 1.8-fold of Kd
[4] = Table 2 disulfide compounds, PL^pro dialyzed to avoid DTT
[5] = Table 2 disulfide compounds, enzymatic inhibition assay, 25 °C, pH 7.5

Compound	Kd (SARS-CoV-2 PL^pro; [3])	Kd (SARS-CoV-2 M^pro)	other results
O=C(O)CCN(C1=NC(=O)/C(=C/c2ccc(F)cc2)S1)c1cccc2ccccc12 [Compound 13c]	8.6 µM	8.6 µM	
O=C(O)CCNc1ccccc1SSc1ccccc1NCCC(=O)O [Compound 33]			Kd (SARS-CoV-2 PL^pro; [4]): 2 µM; Kd (SARS-CoV-2 M^pro; [5]): > 200 µM
O=C(O)CCN(C1=NC(=O)C(=Cc2cccs2)S1)c1cccc2ccccc12 [Compound 16]	≥ 50 µM	> 200 µM	
N#Cc1ccc(-c2csc(N(CCC(=O)O)c3ccc(N)cc3)n2)cc1 [Compound 30c]	32 µM	> 200 µM	
O=C(O)CCNc1cccc2ccccc12 [Compound 1, 3-(naphtylamino]propanoic acid]	68 µM	> 200 µM	
Cc1nc(N(CCC(=O)O)c2cccc3ccccc23)sc1C(=O)/C=C/c1ccc(Cl)cc1 [Compound 21b]	29 µM	17 µM	Fold higher PL^pro affinity than compound 25b (SARS-CoV-2 PL^pro): 2 fold; Fold improvement of PL^pro interaction in styryl ketone series (SARS-CoV-2 PL^pro): 4
Cc1ccc(N(CCC(=O)O)c2nc(-c3ccc(C#N)cc3)c(C=O)s2)cc1 [Compound 29]	> 200 µM	> 200 µM	
Cc1ccc(N(CCC(=O)O)c2nc(C)c(C(=O)C=Cc3ccc(Cl)cc3)s2)cc1 [Compound 25b]	66 µM	> 200 µM	
O=C(O)CCN(C1=NC(=O)C(=Cc2ccc(Cl)cc2)S1)c1cccc2ccccc12 [Compound 13b]	≥ 50 µM	> 200 µM	
O=C(O)CCN(c1nc(-c2ccc([N+](=O)[O-])cc2)cs1)c1cccc2ccccc12 [Compound 6d]	25 µM	26 µM	
CCN(CC)C(=S)SSC(=S)N(CC)CC [disulfiram]			Covalent interaction with cysteine residues of M^pro (M^pro [1]): interact covalently with cysteine residues of M^pro
O=C(CNc1ccccc1SSc1ccccc1NCC(=O)c1ccccc1)c1ccccc1 [Compound 38]			Kd (SARS-CoV-2 PL^pro; [4]): 1.9 µM; Kd (SARS-CoV-2 M^pro; [5]): > 200 µM
Nc1ccccc1SSc1ccccc1N [Compound 32]			Kd (SARS-CoV-2 PL^pro; [4]): 0.54 µM; Thermal effect (Tm) on wild-type PL^pro (wt PL^pro): strongly destabilized the native PL^pro; also recorded: thermal destabilization effect (Tm decrease) induced by 32 is seen only for wild-type PL^pro; Covalent binding to M^pro by mass spectrometry (M^pro [2]; no reducing agents, 1 h incubation at room temperature): covalent binding of 32 with PL^pro and M^pro was confirmed; Mass shift of M^pro-compound adduct (major peak) (M^pro [2]; protein/ligand molar ratio 1:10): 245.73 Da and 245.7 Da; Kd (SARS-CoV-2 M^pro; [5]): 2.8 µM; Covalent binding to PL^pro by mass spectrometry (PL^pro): covalent binding of 32 with PL^pro and M^pro was confirmed; Mass shift of PL^pro-compound adduct (major peak) (PL^pro; protein/ligand molar ratio 1:5 for 32): 123.13 Da
O=C(O)CCN(c1nc(-c2ccc(Cl)c(Cl)c2)cs1)c1cccc2ccccc12 [Compound 7]	≥ 50 µM	> 200 µM	
Cc1nc(N(CCC(=O)O)c2cccc3ccccc23)sc1C(=O)/C=C/c1ccc(F)cc1 [Compound 21c]	52 µM	> 200 µM	Fold improvement of PL^pro interaction in styryl ketone series (SARS-CoV-2 PL^pro): two times
CCOC(=O)Cc1csc(N(CCC(=O)O)c2cccc3ccccc23)n1 [Compound 11]	> 200 µM	> 200 µM	
N#Cc1ccc(-c2csc(N(CCC(=O)O)c3cccc4ccccc34)n2)cc1 [Compound 6e]	20 µM	> 200 µM	
O=C(CCNc1ccccc1SSc1ccccc1NCCC(=O)N/N=C/c1cccs1)N/N=C/c1cccs1 [Compound 35]			Kd (SARS-CoV-2 PL^pro; [4]): 2.5 µM; Kd (SARS-CoV-2 M^pro; [5]): > 200 µM
Cc1ccc(N(CCC(=O)O)c2nc(-c3ccc(Cl)cc3)c(/C=N\Nc3ccccc3)s2)cc1 [Compound 27a]	35 µM	> 200 µM	
Cc1ccc(N(CCC(=O)O)c2nc(-c3ccc(C#N)cc3)c(/C=N\NC(N)=S)s2)cc1 [Compound 28]	8.8 µM	≥ 50 µM	
CC(=O)c1sc(N(CCC(=O)O)c2cccc3ccccc23)nc1C [Compound 19]	≥ 50 µM	> 200 µM	
O=C1CCN(c2ccccc2SSc2ccccc2N2CCC(=O)NC2=O)C(=O)N1 [Compound 37]			Kd (SARS-CoV-2 PL^pro; [4]): 0.63 µM; Kd (SARS-CoV-2 M^pro; [5]): > 200 µM
Cc1ccc(N(CCC(=O)O)c2nc(C)c(C(=O)C=Cc3ccc(F)cc3)s2)cc1 [Compound 25c]	58 µM	> 200 µM	
C/C(=N/N=C(/C)c1sc(N(CCC(=O)O)c2cccc3ccccc23)nc1C)c1sc(N(CCC(=O)O)c2cccc3ccccc23)nc1C [Compound 24]	8 µM	> 200 µM	
O=C(O)CCN(c1nc(-c2ccc3ccccc3c2)cs1)c1cccc2ccccc12 [Compound 8]	35 µM	> 200 µM	
O=C(O)CCN(c1nc(-c2ccc(Br)cc2)cs1)c1cccc2ccccc12 [Compound 6a]	≥ 50 µM	> 200 µM	
O=C(O)CCN(c1nc(-c2ccc(F)cc2)cs1)c1cccc2ccccc12 [Compound 6c]	≥ 50 µM	> 200 µM	
Cc1nc(N(CCC(=O)O)c2cccc3ccccc23)sc1C(=O)/C=C/c1cccc2ccccc12 [Compound 22]	5.2 µM	10 µM	Fold stronger PL^pro affinity than compound 4 (SARS-CoV-2 PL^pro; vs compound 4): more than 20 fold

Compound	Kd (SARS-CoV-2 PL^pro; [3])	Kd (SARS-CoV-2 M^pro)	other results
Cc1ccc(N(CCC(=O)O)c2nc(CNc3ccccc3)cs2)cc1 [Compound 26]	16 µM	> 200 µM	Fold improvement of PL^pro affinity over compound 12 (SARS-CoV-2 PL^pro): 2 fold
CCOC(=O)c1sc(N(CCC(=O)O)c2cccc3ccccc23)nc1C [Compound 20]	29 µM	> 200 µM	
Cc1ccc(N(CCC(=O)O)c2nc(-c3ccc(C#N)cc3)c(/C=N\Nc3ccccc3)s2)cc1 [Compound 27c]	15 µM	> 200 µM	
O=C(O)CCN(c1nc(C(=O)/C=C/c2ccccc2)c(C(=O)/C=C/c2ccccc2)s1)c1cccc2ccccc12 [Compound 31]	≥ 50 µM	≥ 50 µM	
Cn1cnc(Cn2c(=O)[nH]/c(=N\c3cc4cn(C)nc4cc3Cl)n(Cc3cc(F)c(F)cc3F)c2=O)n1 [S-217622]			Antiviral efficacy in patients (SARS-CoV-2): rapid and favorable antiviral efficacy
O=C(O)CCN(C1=NC(=O)CS1)c1cccc2ccccc12 [Compound 5]	> 200 µM	> 200 µM	
Nc1ccc(N(CCC(=O)O)c2nc(-c3ccc(F)cc3)cs2)cc1 [Compound 30b]	≥ 50 µM	> 200 µM	
O=C(O)CCN(c1nc(CO)cs1)c1cccc2ccccc12 [Compound 10]	35 µM	> 200 µM	
O=C(O)CCN(c1nccs1)c1cccc2ccccc12 [Compound 3, 3-[naphthalene-1-yl(1,3-thiazol-2-yl)amino]propanoic acid]	14 µM	25 µM	
Cc1ccc(C)n1NC(=O)CCNc1ccccc1SSc1ccccc1NCCC(=O)Nn1c(C)ccc1C [Compound 36]			Kd (SARS-CoV-2 PL^pro; [4]): 1.9 µM; Kd (SARS-CoV-2 M^pro; [5]): > 200 µM
Cc1nc(N(CCC(=O)O)c2cccc3ccccc23)sc1C(=O)/C=C/c1ccccc1 [Compound 21a]	110 µM	> 200 µM	
COC(=O)C=C1SC(N(CCC(=O)O)c2cccc3ccccc23)=NC1=O [Compound 17]	> 200 µM	> 200 µM	
O=C(O)CCN(C1=NC(=O)C(=Cc2ccc(O)cc2O)S1)c1cccc2ccccc12 [Compound 14]	9.2 µM	> 200 µM	melting point: 205 to 206 °C
O=C(O)CCN(c1nc(-c2ccc(Cl)cc2)cs1)c1cccc2ccccc12 [Compound 6b]	≥ 50 µM	> 200 µM	
Nc1ccc(N(CCC(=O)O)c2nc(-c3ccc(C(F)(F)F)cc3)cs2)cc1 [Compound 30d]	≥ 50 µM	> 200 µM	
Nc1ccc(N(CCC(=O)O)c2nc(-c3ccc(Cl)cc3)cs2)cc1 [Compound 30a]	≥ 50 µM	> 200 µM	
Cc1ccc(N(CCC(=O)O)c2nc(-c3ccc(F)cc3)c(/C=N\Nc3ccccc3)s2)cc1 [Compound 27b]	≥ 50 µM	> 200 µM	
NNC(=O)CCNc1ccccc1SSc1ccccc1NCCC(=O)NN [Compound 34]			Kd (SARS-CoV-2 PL^pro; [4]): 0.43 µM; Fold more potent for PL^pro than M^pro (SARS-CoV-2 PL^pro; ratio of Kd values): eight times; Kd (SARS-CoV-2 M^pro; [5]): 3.5 µM; Covalent binding to PL^pro by mass spectrometry (PL^pro): covalent binding of compound 34 to PLpro
O=C(O)CCN(C1=NC(=O)C(=Cc2ccc(Br)cc2)S1)c1cccc2ccccc12 [Compound 13a]	24 µM	6.5 µM	Fold more potent for M^pro inhibition than PL^pro (SARS-CoV-2 M^pro; ratio of Kd values): 3.7 fold
Cc1nc(N(CCC(=O)O)c2cccc3ccccc23)sc1C(=O)O [Compound 18]	≥ 50 µM	> 200 µM	
Cc1ccc(N(CCC(=O)O)c2nc(C)c(C(=O)C=Cc3ccccc3)s2)cc1 [Compound 25a]	83 µM	> 200 µM	
O=C(O)CCN(c1nc(CNc2ccccc2)cs1)c1cccc2ccccc12 [Compound 12]	29 µM	> 200 µM	
O=C(O)CCN(C1=NC(=O)C(=Cc2ccccc2O)S1)c1cccc2ccccc12 [Compound 15]	≥ 50 µM	> 200 µM	melting point: 203 to 204 °C
NC(=S)N(CCC(=O)O)c1cccc2ccccc12 [Compound 2]	29 µM	> 200 µM	Fold increase in PL^pro binding affinity compared to compound 1 (SARS-CoV-2 PL^pro; vs starting compound 1): 2 fold
C/C(=N/Nc1ccccc1)c1sc(N(CCC(=O)O)c2cccc3ccccc23)nc1C [Compound 23]	75 µM	> 200 µM	
Cc1csc(N(CCC(=O)O)c2cccc3ccccc23)n1 [Compound 4]	110 µM	> 200 µM	Fold weakening of PL^pro interaction compared to compound 3 (SARS-CoV-2 PL^pro; vs parent compound 3): 8 fold
O=C(O)CCN(c1nc(CCl)cs1)c1cccc2ccccc12 [Compound 9]	≥ 50 µM	> 200 µM	
